The subject of this test is Penicillium chrysogenum. The test is described as follows: Potentiation of hygromycin B toxicity by trifluoroperazine, growth of regenerating protoplasts on agar. In kind it is cell-based. On the set-up: key to Growth: +: growth of the Penicillium chrysogenum cells, and therefore, that the toxic effect of hygromycin B was not potentiated by TFP; -: no growth of the Penicillium chrysogenum culture, and therefore, that the toxic effect of hygromycin B was potentiated by trifluoroperazine. The settings on record: for Growth: 28°C, 48 hours. An excerpt:
Protoplasts of Penicillium chrysogenum (Eli Lilly and Co.) were formed with Novozyme 234 in substantial accordance with the procedure described for Cephalosporium acremonium by Queener et al., 1985 Microbiology 1985, American Society for Microbiology, pp 468-472, and by Skatrud et al., 1987, Current Genetics, 12:337-348. During formation of the P. chrysogenum, protoplasts and subsequent cell wall regeneration, sucrose was used as an osmotic stabilizer rather than sodium chloride as described in the above references. Petri plates were prepared that contained an agar layer consisting of: yeast nitrogen base without amino acids and ammonium sulfate (1.7 g/L) (Difco Laboratories, Detroit, MI); ammonium sulfate (5 g/L); and sucrose (125 g/L); trifluoroperazine (final concentration […]; Sigma Chemical Co. Catalog #T-8516); and cadmium chloride (final concentration 3 mM/ml). Approximately 3 X 10⁷ Penicillium chrysogenum protoplasts were delivered to the surface of the solidified agar in a 4 ml soft agar overlay consisting of the following ingredients: yeast nitrogen base without amino acids and ammonium sulfate (1.7 g/L) (Difco Laboratories, Detroit, MI); ammonium sulfate (5 g/L); sucrose (125 g/L); and agar (4 g/L). The plates were incubated overnight at 15°C.
The next morning hygromycin B (final concentration […]; Boehringer Mannheim Catalog #843 555) was added to the plates in a 4 ml soft agar overlay consisting of yeast nitrogen base without amino acids and ammonium sulfate (1.7 g/L) (Difco Laboratories, Detroit, MI); ammonium sulfate (5 g/L); sucrose (125 g/L); and agar (4 g/L). The plates were incubated at 28°C for 48 hours.
In Table 2, a result of "+" indicates growth of the Penicillium chrysogenum cells, and therefore, that the toxic effect of hygromycin B was not potentiated by TFP. A result of "-" indicates no growth of the Penicillium chrysogenum culture, and therefore, that the toxic effect of hygromycin B was potentiated by trifluoroperazine.

From EP0643971A2, “Antifungal compositions consisting of an antifungal agent, e.g. antibiotic R-106I, and a fungal MDR inhibitor” (priority 1993, dated 1995) come the findings set out here.

Consider `CN[C@H]1C[C@@H](N)[C@H](O)[C@@H](O[C@@H]2O[C@H](CO)[C@H](O)[C@@H]3OC4(O[C@H]23)O[C@H]([C@@H](N)CO)[C@H](O)[C@H](O)[C@H]4O)[C@@H]1O` (stereo partly drawn) [Hygromycin B, hygromycin B], for which the Growth result by setting is: (Hygromycin B 0.250 mg/ml, TFP 250 µM) “-”; (Hygromycin B 1 mg/ml, TFP 500 µM) “-”; (Hygromycin B 2 mg/ml, TFP 500 µM) “-”; (Hygromycin B 3 mg/ml, TFP 500 µM) “-”; (Hygromycin B 4 mg/ml, TFP 500 µM) “-”; (Hygromycin B 5 mg/ml, TFP 0 µM) “+”. The Growth entry (Hygromycin B 5 mg/ml, TFP 500 µM) is “-”.
In the case of `CN1CCN(CCCN2c3ccccc3Sc3ccc(C(F)(F)F)cc32)CC1` [TFP, trifluoroperazine], the Growth entry (Hygromycin B 0 mg/ml, TFP 500 µM) is on record as “+”. Besides, the “toxic effect of hygromycin B on Penicillium chrysogenum” value (in the presence of triflouroperazine, summary of Table 2) is “potentiated”.
